# Results as given in US10676429B2, “Sulfamoyl-arylamides and the use thereof as medicaments for the treatment of hepatitis B” (priority 2012, dated 2020).
# pEC50: −log10 of the molar value.
# How the values were obtained:
# HBV [1] = test: Anti-HBV activity in HepG2.117 cell line (Tet-off, intracellular HBV DNA, realtime PCR); format: cell-based; conditions: Hepatitis B virus, HepG2.117, 72 h, HepG2.117 cells, 3 days of treatment, intracellular HBV DNA; read-out: HepG2 117 EC50
# [2] = Cytotoxicity in HepG2 cells, 4 days, Resazurin assay; conditions: human, HepG2 cells
# HBV [3] = test: Anti-HBV activity in stable transfected HepG2.2.15 cell line (HBV DNA from secreted virions, realtime PCR); format: cell-based; conditions: Hepatitis B virus, HepG2.2.15, 144 h, HepG2.2.15 cells, 6 days of treatment, secreted virion HBV DNA; read-out: HepG2 2.15 EC50
structure (smiles),measurement,setting,value
Cc1cc(NC(=O)c2cccc(S(=O)(=O)NC(C)C)c2)ccc1F [Compound 73],pEC50,HBV [1],6.82
same,CC50 at 4 days,[2],> 25000 nM
same,pEC50,HBV [3],7.14
CC(C)NS(=O)(=O)c1cccc(C(=O)Nc2ccc(F)c(C(F)(F)F)c2)c1 [Compound 74],pEC50,HBV [1],6.28
same,CC50 at 4 days,[2],> 25000 nM
same,pEC50,HBV [3],6.19
N#Cc1cccc(NC(=O)c2cccc(S(=O)(=O)NC3CCCC3)c2)c1 [Compound 75],pEC50,HBV [1],6.09
same,CC50 at 4 days,[2],> 25000 nM
same,pEC50,HBV [3],6.41
CC1(NS(=O)(=O)c2cccc(C(=O)Nc3ccc(F)cc3)c2)CCCC1 [Compound 76],pEC50,HBV [1],5.60
same,CC50 at 4 days,[2],> 25000 nM
same,pEC50,HBV [3],6.14
O=C(Nc1ccc(F)cc1)c1cc(S(=O)(=O)NC2CCCC2)c(Cl)cc1Cl [Compound 78],pEC50,HBV [1],6.19
same,CC50 at 4 days,[2],> 25000 nM
same,pEC50,HBV [3],6.05
CCC(C)(C)NS(=O)(=O)c1cccc(C(=O)Nc2ccc(F)cc2)c1 [Compound 79],pEC50,HBV [1],5.77
same,CC50 at 4 days,[2],> 25000 nM
same,pEC50,HBV [3],6.02
N#Cc1ccc(NC(=O)c2cccc(S(=O)(=O)NC3CCCC3)c2)cc1 [Compound 80],pEC50,HBV [1],4.75
same,CC50 at 4 days,[2],> 25000 nM
same,pEC50,HBV [3],5.08
O=C(Nc1cccc(C(F)(F)F)c1)c1cccc(S(=O)(=O)NC2CCCC2)c1 [Compound 81],pEC50,HBV [1],6.09
same,CC50 at 4 days,[2],15300 nM
same,pEC50,HBV [3],6.62
Cc1cc(C#N)cc(NC(=O)c2cccc(S(=O)(=O)NC3CCCC3)c2)c1 [Compound 82],pEC50,HBV [1],5.50
same,CC50 at 4 days,[2],> 25000 nM
same,pEC50,HBV [3],5.92
CC(C)NS(=O)(=O)c1cccc(C(=O)Nc2ccc(F)c(C3CC3)c2)c1 [Compound 84],pEC50,HBV [1],6.04
same,CC50 at 4 days,[2],> 25000 nM
same,pEC50,HBV [3],6.49
CCC1(NS(=O)(=O)c2cccc(C(=O)Nc3ccc(F)c(C)c3)c2)CC1 [Compound 85],pEC50,HBV [1],6.42
same,CC50 at 4 days,[2],> 25000 nM
same,pEC50,HBV [3],7.30
CCC(C)(C)NS(=O)(=O)c1cccc(C(=O)Nc2ccc(F)c(C)c2)c1 [Compound 86],pEC50,HBV [1],6.96
same,CC50 at 4 days,[2],> 25000 nM
same,pEC50,HBV [3],6.85
CCC1(NS(=O)(=O)c2cccc(C(=O)Nc3ccc(F)cc3)c2)CC1 [Compound 87],pEC50,HBV [1],6.05
same,CC50 at 4 days,[2],> 25000 nM
same,pEC50,HBV [3],6.39
CC(C)NS(=O)(=O)c1cccc(C(=O)Nc2ccc(F)c(F)c2)c1 [Compound 88],pEC50,HBV [1],6.40
same,CC50 at 4 days,[2],> 25000 nM
same,pEC50,HBV [3],6.68
CCC1(NS(=O)(=O)c2cccc(C(=O)Nc3ccc(F)cc3)c2)COC1 [Compound 89],pEC50,HBV [1],6.14
same,CC50 at 4 days,[2],> 25000 nM
same,pEC50,HBV [3],6.27
O=C(Nc1ccc(F)c(F)c1)c1cccc(S(=O)(=O)N[C@H]2CCOC2)c1 [Compound 90],pEC50,HBV [1],6.29
same,CC50 at 4 days,[2],> 25000 nM
same,pEC50,HBV [3],6.42
C#Cc1cc(NC(=O)c2cccc(S(=O)(=O)NC(C)C)c2)ccc1F [Compound 91],pEC50,HBV [1],6.11
same,CC50 at 4 days,[2],> 25000 nM
same,pEC50,HBV [3],6.28
CCc1cc(NC(=O)c2cccc(S(=O)(=O)NC(C)C)c2)ccc1F [Compound 92],pEC50,HBV [1],5.59
same,CC50 at 4 days,[2],> 25000 nM
same,pEC50,HBV [3],6.51
CCC1(NS(=O)(=O)c2cccc(C(=O)Nc3ccc(F)c(C)c3)c2)COC1 [Compound 93],pEC50,HBV [1],6.66
same,CC50 at 4 days,[2],> 25000 nM
same,pEC50,HBV [3],7.15
Cc1cc(NC(=O)c2cccc(S(=O)(=O)NC3(C)CC3)c2)ccc1F [Compound 94],pEC50,HBV [1],6.64
same,CC50 at 4 days,[2],> 25000 nM
same,pEC50,HBV [3],6.82
CC(C)NS(=O)(=O)c1cccc(C(=O)Nc2ccc(F)c(C(C)C)c2)c1 [Compound 95],pEC50,HBV [1],5.55
same,CC50 at 4 days,[2],> 25000 nM
same,pEC50,HBV [3],5.85
CC(C)NS(=O)(=O)c1cccc(C(=O)Nc2ccc(F)c(C(F)F)c2)c1 [Compound 96],pEC50,HBV [1],6.54
same,CC50 at 4 days,[2],> 25000 nM
same,pEC50,HBV [3],7.00
Cc1cc(NC(=O)c2cccc(S(=O)(=O)NC3(C)COC3)c2)ccc1F [Compound 97],pEC50,HBV [1],6.43
same,CC50 at 4 days,[2],> 25000 nM
same,pEC50,HBV [3],6.92
CC[C@@H](C)NS(=O)(=O)c1cccc(C(=O)Nc2ccc(F)c(C)c2)c1 [Compound 98],pEC50,HBV [1],6.51
same,CC50 at 4 days,[2],> 25000 nM
same,pEC50,HBV [3],7.00
Cc1cc(NC(=O)c2cccc(S(=O)(=O)NC(C)C)c2)cc(F)c1F [Compound 99],pEC50,HBV [1],6.34
same,CC50 at 4 days,[2],> 25000 nM
same,pEC50,HBV [3],7.05
CC[C@@H](C)NS(=O)(=O)c1ccc(F)c(C(=O)Nc2ccc(F)c(F)c2)c1 [Compound 100],pEC50,HBV [1],6.37
same,CC50 at 4 days,[2],> 25000 nM
same,pEC50,HBV [3],6.89
O=C(Nc1ccc(F)c(F)c1)c1cc(S(=O)(=O)N[C@H]2CCOC2)ccc1F [Compound 101],pEC50,HBV [1],5.82
same,CC50 at 4 days,[2],> 25000 nM
same,pEC50,HBV [3],6.37
O=C(Nc1ccc(F)c(C(F)F)c1)c1cccc(S(=O)(=O)N[C@H]2CCOC2)c1 [Compound 102],pEC50,HBV [1],6.48
same,CC50 at 4 days,[2],> 25000 nM
same,pEC50,HBV [3],6.74
N#Cc1cc(NC(=O)c2cccc(S(=O)(=O)N[C@H]3CCOC3)c2)ccc1F [Compound 105],pEC50,HBV [1],6.01
same,CC50 at 4 days,[2],> 25000 nM
same,pEC50,HBV [3],6.09
COc1ccc(NC(=O)c2cccc(S(=O)(=O)N[C@H]3CCOC3)c2)cc1C [Compound 107],pEC50,HBV [1],4.86
same,CC50 at 4 days,[2],> 25000 nM
same,pEC50,HBV [3],5.11
CC1(NS(=O)(=O)c2cccc(C(=O)Nc3ccc(F)c(O)c3)c2)COC1 [Compound 108],pEC50,HBV [1],5.03
same,CC50 at 4 days,[2],> 25000 nM
same,pEC50,HBV [3],5.14
COc1cc(NC(=O)c2cccc(S(=O)(=O)NC3(C)COC3)c2)ccc1F [Compound 109],pEC50,HBV [1],5.60
same,CC50 at 4 days,[2],> 25000 nM
same,pEC50,HBV [3],5.91
C=Cc1cc(NC(=O)c2cccc(S(=O)(=O)NC3(C)COC3)c2)ccc1F [Compound 110],pEC50,HBV [1],6.07
same,CC50 at 4 days,[2],> 25000 nM
same,pEC50,HBV [3],6.18
CC1(NS(=O)(=O)c2cccc(C(=O)Nc3ccc(F)c(CO)c3)c2)COC1 [Compound 111],pEC50,HBV [1],5.83
same,CC50 at 4 days,[2],> 25000 nM
same,pEC50,HBV [3],5.35
Cc1cc(NC(=O)c2cccc(S(=O)(=O)N[C@H]3CCOC3)c2F)ccc1F [Compound 112],pEC50,HBV [1],6.85
same,CC50 at 4 days,[2],> 25000 nM
same,pEC50,HBV [3],7.52
Cc1ccc(S(=O)(=O)NC2(C)COC2)cc1C(=O)Nc1ccc(F)c(C(F)F)c1 [Compound 113],pEC50,HBV [1],6.74
same,CC50 at 4 days,[2],> 25000 nM
same,pEC50,HBV [3],6.82
COc1ccc(NC(=O)c2cccc(S(=O)(=O)NC(C)C)c2)cc1F [Compound 114],pEC50,HBV [1],5.50
same,CC50 at 4 days,[2],> 25000 nM
same,pEC50,HBV [3],5.87
Cc1cc(NC(=O)c2cccc(S(=O)(=O)NC(C)CN3CCN(C)CC3)c2)ccc1F (stereo not drawn) [Compound 116],pEC50,HBV [1],6.05
same,CC50 at 4 days,[2],> 25000 nM
same,pEC50,HBV [3],5.71
Cc1cc(NC(=O)c2cccc(S(=O)(=O)NC(C)CN3CCOCC3)c2)ccc1F (stereo not drawn) [Compound 117],pEC50,HBV [1],6.30
same,CC50 at 4 days,[2],> 25000 nM
same,pEC50,HBV [3],6.06
Cc1cc(NC(=O)c2cccc(S(=O)(=O)NC(C)Cc3ccccn3)c2)ccc1F (stereo not drawn) [Compound 120],pEC50,HBV [1],6.29
same,CC50 at 4 days,[2],> 25000 nM
same,pEC50,HBV [3],6.28
Cc1cc(NC(=O)c2cc(S(=O)(=O)N[C@H]3CCOC3)ccc2C)ccc1F [Compound 121],pEC50,HBV [1],6.89
same,CC50 at 4 days,[2],> 25000 nM
same,pEC50,HBV [3],6.80
Cc1cc(NC(=O)c2cc(S(=O)(=O)NC3(C)COC3)ccc2C)ccc1F [Compound 122],pEC50,HBV [1],6.74
same,CC50 at 4 days,[2],> 25000 nM
same,pEC50,HBV [3],6.89
Cc1cc(NC(=O)c2cc(Cl)cc(S(=O)(=O)N[C@H]3CCOC3)c2F)ccc1F [Compound 123],pEC50,HBV [1],6.52
same,CC50 at 4 days,[2],> 25000 nM
same,pEC50,HBV [3],6.82
Cc1cc(NC(=O)c2cccc(S(=O)(=O)N[C@H]3CCOC3)c2Cl)ccc1F [Compound 124],pEC50,HBV [1],6.17
same,CC50 at 4 days,[2],> 25000 nM
same,pEC50,HBV [3],6.48
Cc1cc(NC(=O)c2c(Cl)ccc(S(=O)(=O)N[C@H]3CCOC3)c2Cl)ccc1F [Compound 125],pEC50,HBV [1],5.94
same,CC50 at 4 days,[2],> 25000 nM
same,pEC50,HBV [3],5.84
Cc1cc(NC(=O)c2cccc(S(=O)(=O)N[C@H]3CCOC3)c2C)ccc1F [Compound 126],pEC50,HBV [1],6.05
same,CC50 at 4 days,[2],> 25000 nM
same,pEC50,HBV [3],5.86
